Data from EP2140864A2 (H. Lundbeck A/S, priority 2001, dated 2002).
Read-outs that look alike come from different tables or passages of the source.

How the values were obtained:
dopamine D5 receptor = target: T1, dopamine D5 receptor (Homo sapiens, UniProt P21918); test: Radioligand binding, dopamine D5 receptor
T1 construct: expressed in transfected cells
Text: (§1) Other receptors: Cell membranes expressing human dopamine D1, D2, D4 and rat D3 receptors were purchased through BioSignal, Inc. (Montreal, Canada). Binding assays using the histamine H1 receptor; dopamine receptors; and α1A, α1E, and α2 adrenergic receptors may be carried out according to the procedures described in U.S. Patent No. 5,780,485, the disclosure of which is hereby incorporated by reference in its entirety into this application. Binding assays using the dopamine D5 receptor may be carried out according to the procedures described in U.S. Patent No. 5,882,855, the disclosure of which is hereby incorporated by reference in its entirety into this application. Binding assays for the human α1D adrenergic receptor may be carried out according to the procedures described in U.S. Patent No. 6,156,518, the disclosure of which is hereby incorporated by reference in its entirety into this application.
(§2) Binding data were analyzed using nonlinear regression and statistical techniques available in the GraphPAD Prism package (San Diego, CA). Enzymatic assay data were derived from a standard curve of reference compound data.

Human 5HT2A Receptor = target: T2, Human 5HT2A Receptor (Homo sapiens, UniProt P28223); test: Radioligand binding, 5HT2A receptor ([3H]ketanserin)
T2 construct: expressed in transfected cells; host or cells: COS-7 cells (pCEXV-3 vector, DEAE-dextran)
Method: Human 5HT2A Receptor: The coding sequence of the human 5HT2A receptor was obtained from a human brain cortex cDNA library, and cloned into the cloning site of pCEXV-3 eukaryotic expression vector. This construct was transfected into COS-7 cells by the DEAE-dextran method (Cullen, 1987). Cells were harvested after 72 hours and lysed by sonication in 5 mM Tris-HCl, 5 mM EDTA, pH 7.5. The cell lysates were subjected to centrifugation at 1000 rpm for 5 minutes at 4°C, and the supernatant was subjected to centrifugation at 30,000 x g for 20 minutes at 4°C. The pellet was suspended in 50 mM Tris-HCl buffer (pH 7.7 at room temperature) containing 10 mM MgS04, 0.5 mM EDTA, and 0.1% ascorbate. The affinity of compounds at 5HT2A receptors were determined in equilibrium competition binding assays using [^3H]ketanserin (1 nM). Nonspecific binding was defined by the addition of 10 µM mianserin. The bound radioligand was separated by filtration through GF/B filters using a cell harvester.
as §2

rat D3 receptors = target: T3, rat D3 receptors (Rattus norvegicus, UniProt P19020); test: Radioligand binding, dopamine D3 receptor
T3 construct: purchased BioSignal, Inc. (Montreal, Canada)
Text: as §1, §2

human α2C adrenoceptor = target: T4, human α2C adrenoceptor (Homo sapiens, UniProt P18825); test: Radioligand binding, α2C adrenergic receptor
T4 construct: expressed in transfected cells
T4 sequence (P18825 1-462): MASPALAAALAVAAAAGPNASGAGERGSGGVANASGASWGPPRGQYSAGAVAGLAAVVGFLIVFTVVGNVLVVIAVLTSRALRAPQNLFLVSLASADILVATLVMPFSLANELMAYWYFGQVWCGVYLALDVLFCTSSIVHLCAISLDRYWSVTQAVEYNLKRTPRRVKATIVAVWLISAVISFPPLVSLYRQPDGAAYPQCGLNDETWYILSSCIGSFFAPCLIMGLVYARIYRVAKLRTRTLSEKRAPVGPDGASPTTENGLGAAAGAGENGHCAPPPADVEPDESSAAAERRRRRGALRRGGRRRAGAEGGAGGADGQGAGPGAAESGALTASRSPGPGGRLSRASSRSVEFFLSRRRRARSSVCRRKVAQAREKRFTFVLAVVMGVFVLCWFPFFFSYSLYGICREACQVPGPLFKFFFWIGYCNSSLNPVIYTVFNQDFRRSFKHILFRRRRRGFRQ
Text: as §1, §2

human α1B adrenoceptor = target: T5, human α1B adrenoceptor (Homo sapiens, UniProt P35368); test: Radioligand binding, α1B adrenergic receptor
T5 construct: expressed in transfected cells
T5 sequence (P35368 1-520): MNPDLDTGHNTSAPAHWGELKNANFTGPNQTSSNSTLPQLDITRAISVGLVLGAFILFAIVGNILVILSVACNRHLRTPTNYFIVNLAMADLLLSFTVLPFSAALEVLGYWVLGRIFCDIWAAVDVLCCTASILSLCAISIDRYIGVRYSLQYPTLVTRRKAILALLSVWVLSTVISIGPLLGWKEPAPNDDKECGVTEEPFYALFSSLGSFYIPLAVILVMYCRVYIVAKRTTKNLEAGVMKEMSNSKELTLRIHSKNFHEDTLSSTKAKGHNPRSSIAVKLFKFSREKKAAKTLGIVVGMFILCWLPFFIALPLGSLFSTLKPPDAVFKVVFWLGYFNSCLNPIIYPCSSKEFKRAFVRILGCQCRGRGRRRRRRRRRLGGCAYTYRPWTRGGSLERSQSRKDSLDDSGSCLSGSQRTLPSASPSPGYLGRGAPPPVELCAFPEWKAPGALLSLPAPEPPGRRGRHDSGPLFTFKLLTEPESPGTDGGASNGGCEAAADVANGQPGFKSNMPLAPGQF

human dopamine D1 = target: T6, human dopamine D1 (Homo sapiens, UniProt P21728); test: Radioligand binding, dopamine D1 receptor
T6 construct: purchased BioSignal, Inc. (Montreal, Canada); host or cells: membranes of cells expressing the receptor
Text: as §1, §2

[1] = Table 10; Ki hD5 divided by Ki hGAL3
[2] = Table 8; Ki h5HT2A divided by Ki hGAL3
[3] = Table 10; Ki rD3 divided by Ki hGAL3
[4] = Table 10; Ki hα2C divided by Ki hGAL3
[5] = Table 10; Ki hα1B divided by Ki hGAL3
[6] = Table 10; Ki hD1 divided by Ki hGAL3

T6 sequence (P21728 whole entry): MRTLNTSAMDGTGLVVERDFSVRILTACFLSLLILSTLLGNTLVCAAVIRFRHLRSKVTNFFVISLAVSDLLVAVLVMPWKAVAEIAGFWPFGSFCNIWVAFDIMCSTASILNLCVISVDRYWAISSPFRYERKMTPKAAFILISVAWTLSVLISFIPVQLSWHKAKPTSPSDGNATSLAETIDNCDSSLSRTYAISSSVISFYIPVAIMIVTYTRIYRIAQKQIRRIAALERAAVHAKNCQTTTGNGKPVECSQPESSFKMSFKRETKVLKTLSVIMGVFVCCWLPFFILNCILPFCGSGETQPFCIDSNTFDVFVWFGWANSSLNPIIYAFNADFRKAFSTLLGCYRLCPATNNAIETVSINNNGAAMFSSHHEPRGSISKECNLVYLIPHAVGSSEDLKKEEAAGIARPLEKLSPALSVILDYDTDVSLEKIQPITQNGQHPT
T3 sequence (P19020 whole entry): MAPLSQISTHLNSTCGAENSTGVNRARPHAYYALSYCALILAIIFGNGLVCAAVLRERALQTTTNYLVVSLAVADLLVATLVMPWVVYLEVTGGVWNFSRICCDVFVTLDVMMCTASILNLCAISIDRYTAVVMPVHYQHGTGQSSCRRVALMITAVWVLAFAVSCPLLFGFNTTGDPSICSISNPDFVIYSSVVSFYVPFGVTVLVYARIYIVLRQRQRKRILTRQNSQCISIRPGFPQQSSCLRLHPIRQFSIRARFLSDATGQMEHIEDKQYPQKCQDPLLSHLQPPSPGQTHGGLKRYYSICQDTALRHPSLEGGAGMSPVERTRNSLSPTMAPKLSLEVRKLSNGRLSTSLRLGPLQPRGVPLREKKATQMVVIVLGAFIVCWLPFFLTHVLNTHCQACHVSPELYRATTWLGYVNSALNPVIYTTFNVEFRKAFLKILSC
T1 sequence (P21918 whole entry): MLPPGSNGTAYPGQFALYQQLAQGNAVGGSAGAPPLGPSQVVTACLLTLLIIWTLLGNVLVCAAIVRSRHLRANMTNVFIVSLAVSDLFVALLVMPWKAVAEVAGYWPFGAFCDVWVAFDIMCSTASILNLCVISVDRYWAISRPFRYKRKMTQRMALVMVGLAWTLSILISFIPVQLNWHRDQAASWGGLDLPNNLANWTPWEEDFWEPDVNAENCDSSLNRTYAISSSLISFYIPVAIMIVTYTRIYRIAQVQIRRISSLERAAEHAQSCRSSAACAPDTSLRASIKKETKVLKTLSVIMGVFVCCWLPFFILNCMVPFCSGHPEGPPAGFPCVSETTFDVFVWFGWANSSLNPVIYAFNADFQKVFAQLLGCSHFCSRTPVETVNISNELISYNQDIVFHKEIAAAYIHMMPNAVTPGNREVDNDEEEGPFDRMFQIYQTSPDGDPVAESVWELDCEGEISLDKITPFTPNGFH
T2 sequence (P28223 whole entry): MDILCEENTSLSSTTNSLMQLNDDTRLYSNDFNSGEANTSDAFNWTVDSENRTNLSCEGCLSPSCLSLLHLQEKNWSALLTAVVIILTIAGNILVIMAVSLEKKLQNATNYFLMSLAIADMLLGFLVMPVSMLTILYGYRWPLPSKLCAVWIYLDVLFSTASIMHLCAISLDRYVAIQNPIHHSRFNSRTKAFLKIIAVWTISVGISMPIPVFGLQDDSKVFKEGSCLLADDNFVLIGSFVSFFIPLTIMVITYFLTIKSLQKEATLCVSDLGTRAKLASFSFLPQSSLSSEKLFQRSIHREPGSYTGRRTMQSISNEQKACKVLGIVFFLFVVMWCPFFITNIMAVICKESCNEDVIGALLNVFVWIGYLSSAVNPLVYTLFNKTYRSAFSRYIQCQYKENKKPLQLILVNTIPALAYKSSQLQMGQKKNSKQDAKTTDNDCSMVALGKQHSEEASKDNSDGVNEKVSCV

Row | Compound | Ki (dopamine D5 receptor; Table 9; read-out: hD5 Ki) [nM] | selectivity ratio hD5 (dopamine D5 receptor; [1]) | Ki (Human 5HT2A Receptor; Table 7; read-out: h5HT2A Ki) [nM] | selectivity ratio h5HT2A (Human 5HT2A Receptor; [2]) | Ki (rat D3 receptors; Table 9; read-out: rD3 Ki) [nM] | selectivity ratio rD3 (rat D3 receptors; [3]) | Ki (human α2C adrenoceptor; Table 9; read-out: hα2C Ki) [nM] | selectivity ratio hα2C (human α2C adrenoceptor; [4]) | Ki (human α1B adrenoceptor; Table 9; read-out: hα1B Ki) [nM] | selectivity ratio hα1B (human α1B adrenoceptor; [5]) | Ki (human dopamine D1; Table 9; read-out: hD1 Ki) [nM] | selectivity ratio hD1 (human dopamine D1; [6]) | Ki (dopamine D5 receptor; read-out: hD5 Ki; Table 9) [nM] | Ki (Human 5HT2A Receptor; read-out: h5HT2A Ki; Table 7) [nM] | Ki (rat D3 receptors; read-out: rD3 Ki; Table 9) [nM] | Ki (human α2C adrenoceptor; read-out: hα2C Ki; Table 9) [nM] | Ki (human α1B adrenoceptor; read-out: hα1B Ki; Table 9) [nM] | Ki (human dopamine D1; read-out: hD1 Ki; Table 9) [nM]
1 | Cc1ccc(Nc2cc(N3CCCCC3)nc(N(C)CCc3ccccc3)n2)cc1 [Example 22] | 63 | 2 | 20700 | >100 | 5660 | >100 | 2740 | >100 | 1580 | >30 | 128 | 5 |  |  |  |  |  | 
2 | O=C1C(=Nc2ccc(Br)cc2)c2ccccc2N1c1ccccc1 [Example 98, 3-[(4-BROMOPHENYL)IMINO]-1-PHENYL-1,3-DIHYDRO-2H-INDOL-2-ONE] | 1200 | >30 | > 50000 | >100 | 592 | 16 | > 50000 | >100 | 31700 | >100 | 2520 | >30 |  |  |  |  |  | 
3 | O=C1C(=Nc2ccc(C(F)(F)F)cc2)c2ccccc2N1c1ccccc1 [Example 95, 1-PHENYL-3-[[4-(TRIFLUOROMETHYL)PHENYL]IMINO]-1,3-DIHYDRO-2H-INDOL-2-ONE] | 2590 | >30 | > 50000 | >100 | 466 | 16 | 48600 | >100 | 32500 | >100 | 4390 | >100 |  |  |  |  |  | 
4 | CN(C)c1cc(Nc2ccc(Cl)c(Cl)c2)nc(Nc2ccccc2)n1 [Example 60] | 538 | 6 | 26100 | >100 | 15300 | >100 | 7200 | >30 | 40600 | >100 | 600 | 7 |  |  |  |  |  | 
5 | CN(CCc1c[nH]c2ccccc12)c1nc(Nc2ccc(F)c(F)c2)cc(N2CCCCC2)n1 [Example 15] | 78 | 1 | 11300 | >100 | 8810 | >100 | 8200 | >100 | 853 | 12 | 344 | 5 |  |  |  |  |  | 
6 | Cc1ccc(Nc2cc(N3CCCCC3)nc(N(C)CCc3c[nH]c4ccccc34)n2)cc1 [Example 11] | 64 | 0.7 | 6710 | >30 | 2140 | 24 | 3000 | >30 | 1440 | 16 | 79 | 0.9 |  |  |  |  |  | 
7 | COc1cccc(Nc2cc(N3CCCCC3)nc(N(C)CCc3c[nH]c4ccccc34)n2)c1 [Example 17] | 89 | 1 | 7160 | >30 | 2480 | 28 | 10300 | >100 | 1170 | 13 | 516 | 6 |  |  |  |  |  | 
8 | Cc1ccc(Nc2cc(N(C)C)nc(N(C)CCc3c[nH]c4ccccc34)n2)cc1 [Example 77] | 122 | 2 | 2240 | 28 | 2720 | >30 | 634 | 8 | 452 | 6 | 60 | 0.8 |  |  |  |  |  | 
9 | O=C1C(=Nc2cccc(C(F)(F)F)c2)c2ccccc2N1c1ccccc1 [Example 92, 1-PHENYL-3- [[3-(TRIFLUOROMETHYL)PHENYL]IMINO]-1,3-DIHYDRO-2H-INDOL-2-ONE] |  | >100 |  | >100 |  | >100 |  | >100 |  | >100 |  | >100 |  |  |  |  |  | 
10 | O=C1C(=Nc2cccc(Cl)c2)c2ccccc2N1c1ccccc1 [Example 94, 3-[(3-CHLOROPHENYL)IMINO]-1-PHENYL-1,3-DIHYDRO-2H-INDOL-2-ONE] | 727 | 15 | > 50000 | >100 | 423 | 9 | 47900 | >100 | 31100 | >100 | 2150 | >30 |  |  |  |  |  | 
11 | COC[C@@H]1[C@@H](c2ccccc2)OCCN1c1nc(Nc2ccc(C)cc2)cc(N2CCCCC2)n1 [Example 49] |  | 2 |  | >100 |  | >30 |  | >30 |  | >30 |  | 18 | 328 | > 50000 | 14000 | 9240 | 18900 | 3780
12 | O=C1C(=Nc2ccc(Cl)cc2)c2ccccc2N1c1ccccc1 [Example 97, 3-[(4-CHLOROPHENYL)IMINO]-1-PHENYL-1,3-DIHYDRO-2H-INDOL-2-ONE] | 10100 | >100 | > 50000 | >100 | 9720 | >100 | > 50000 | >100 | 45800 | >100 | 25100 | >100 |  |  |  |  |  | 
13 | Cc1ccc(Nc2cc(N3CCCCC3)nc(N3CCN(c4ncccc4C(F)(F)F)CC3)n2)cc1 [Example 34] | 111 | 5 |  | >100 | 9920 | >100 | 8830 | >100 | 15000 | >100 | 290 | 13 |  |  |  |  |  | 
